Experimental data: US20260256909A1, “COMBINATION OF A BTN3A ACTIVATING ANTIBODY, A BCL2 INHIBITOR AND HYPOMETHYLATING AGENT FOR USE IN TREATING CANCER” (Imcheck Therapeutics, priority 2022, published 2026)

What was measured:
Assay type in all cases: cell-based, human
Vγ9Vδ2 T cells = experiment: Proliferation of Vγ9Vδ2 T cells in HD-PBMC (CellTrace Violet); conditions: day 4, ICT01 1 μg/mL; for ICT01 and IL2-induced proliferation of Vγ9Vδ2 T cells: 50 IU/mL IL2; for increase of ICT01-induced proliferation of Vγ9Vδ2 T cells: absence of IL2
Description: Finally, freshly isolated human PBMC from healthy donors (HD, n=6) were labeled with CellTrace Violet stain (CTV, Invitrogen) to determine cell proliferation upon treatment with ICT01 or its isotype control (hIgG1S) used at 1 μg/mL in the presence or absence of increasing concentrations of Venetoclax (0-0.1 μM), 5-Azacytidine (0-0.4 μM) or the combination in PBMC medium (RPMI 1640 Medium supplemented with 10% FBS, 1% Penicillin/Streptomycin and 1 mM Sodium Pyruvate). Half of the cells were additionally treated with 50 IU/mL IL2. Cells were harvested on day 4, centrifuged at 1800 rpm for 5 minutes and then incubated 10 minutes at RT with 25 μl of FcR blocking reagent (Miltenyi Biotec) before adding 25 μL of the following antibody mix prepared in PBS+2% FBS+2 mM EDTA (FACS buffer): anti-CD4-BV650, CD56-FITC, Vδ2-PE, CD3-PE-CF594 and CD8-A700 antibodies for the identification of immune subsets, and a viability marker (LIVE/DEAD™ Fixable Dead Cell Stain) was added to distinguish live from dead cells. Cells were incubated 20 minutes at 4° C. and washed 2 times in FACS buffer before flow cytometry analysis.

Raji (Burkitts Lymphoma) = experiment: Killing of Raji cells in co-culture with HD-PBMC (flow cytometry); conditions: co-culture with HD-PBMC ratio 5:1, 48 hrs
Description: (§1) Raji cells (Burkitt Lymphoma) or JVM2 cells (Chronic-B cell Leukemia) were co-cultured with HD-PBMC at ratio 5:1 in presence of ICT01 or isotype control (0.1 μg/mL or 1 μg/mL). After 6 hrs, indicated concentrations of Venetoclax, 5-Azacytidine or the combination were added to the culture. Relative numbers of live Raji (A) or JVM2 (B) were monitored after 48 hrs by flow cytometry. […] N=6, each dot represents one healthy donor, * p<0.05, ** p<0.01, 2 way ANOVA.
(§2) The effect of Venetoclax and 5-Azacytidine on BTN3A activating antibody-induced killing of Burkitt Lymphoma and Chronic-B-cell leukemia cell lines by Vγ9Vδ2 T cells was assessed by measuring the relative number of surviving target cells in a HD-PBMC-Target cell co-culture using flow cytometry.

[1] = tested on: JVM-2 (Chronic B-cell leukemia); experiment: Killing of JVM-2 cells in co-culture with HD-PBMC (flow cytometry); conditions: co-culture with HD-PBMC ratio 5:1, 48 hrs
Description: as §1, §2

MOLM14 cells = experiment: Killing of MOLM14 AML cells in co-culture with HD-PBMC (flow cytometry); conditions: ICT01 0.1 μg/mL, HD-PBMC ratio 5:1, 2 days
Description: KG1a or MOLM14 AML cell lines were co-cultured with HD-PBMC at ratio 5:1 in presence of ICT01 or isotype control (0.1 μg/mL). After 6 hrs, indicated concentrations of ABT-737, Navitoclax or MIK665 were added to the culture. A) Relative numbers of live KG1a cells (Mean±SEM) after 2 days of co-culture with HD-PBMC in presence of ICT01 (black) or its isotype control hIgG1S (light grey) and treatment with indicated concentration of ABT-737. B) Relative numbers of live KG1a cells (Mean±SEM) after 2 days of co-culture with HD-PBMC in presence of ICT01 (black) or its isotype control hIgG1S (light grey) and treatment with indicated concentration of Navitoclax. C) Relative numbers of live MOLM14 cells (Mean±SEM) after 2 days of co-culture with HD-PBMC in presence of ICT01 (black) or its isotype control hIgG1S (light grey) and treatment with indicated concentration of MIK665. N=6 HD, each dot represents one healthy donor, * p<0.05, 2 way ANOVA.
The effect of the three Bcl-2 family member inhibitors ABT-737, Navitoclax and MIK665, on ICT01-induced killing of AML cell lines by Vγ9Vδ2 T cells was assessed by measuring the relative number of surviving target cells in a HD-PBMC-AML cells co-culture using flow cytometry.
For assays using ABT-737 or Navitoclax, KG1a cells were used. […] Therefore, MOLM14 cells, which express MCL-1, were used in killing assays assessing the activity of ICT01 combined with MIK665.

Molecule	ICT01 and IL2-induced proliferation of Vγ9Vδ2 T cells (Vγ9Vδ2 T cells)	increase of ICT01-induced proliferation of Vγ9Vδ2 T cells (Vγ9Vδ2 T cells)	decrease of live Raji cells as compared to hIgG1S alone condition (control) (Raji (Burkitts Lymphoma))	decrease of live JVM-2 cells as compared to hIgG1S alone condition (control) [1]	MOLM14 cell death as compared to control condition (MOLM14 cells)
Nc1ncn([C@@H]2O[C@H](CO)[C@@H](O)[C@H]2O)c(=O)n1 [5-Azacytidine, 4-amino-1-[(2R,3R,4S,5R)3,4-dihydroxy-5-(hydroxymethyl)oxolan-2-yl]-1,3,5-triazin-2-one]	unaffected	not observed			
CC1(C)CCC(CN2CCN(c3ccc(C(=O)NS(=O)(=O)c4ccc(NCC5CCOCC5)c([N+](=O)[O-])c4)c(Oc4cnc5[nH]ccc5c4)c3)CC2)=C(c2ccc(Cl)cc2)C1 [Venetoclax, 4-[4-[[2-(4-chlorophenyl)-4,4-dimethylcyclohexen-1-yl]methyl]piperazin-1-yl]-N-[3-nitro-4-(oxan-4-ylmethylamino)phenyl]sulfonyl-2-(1H-pyrrolo[2,3-b]pyridin-5-yloxy)benzamide]	unaffected	~ 10%			
ICT01: humanized BTN3A activating antibody of mAb 7.2, heavy chain SEQ ID NO: 4, light chain SEQ ID NO: 6, silent IgG1 L247F/L248E/P350S			~ 22%	~ 16%	~ 56%
